Read-outs that look alike come from different tables or passages of the source.
What was measured:
[1] = test system: HL-60 cells; experiment: HL-60 cell viability assay (Alamar Blue, 48 hours); settings: Homo sapiens, HL-60, 48 h
[2] = molecular target: ROCK1 (Homo sapiens, UniProt Q13464); experiment: ExpresS Diversity Kinase Profile, Cerep (LANCE): ROCK1; format: biochemical
[3] = molecular target: T1, EP3 (Homo sapiens, UniProt P43115); experiment: EP3 functional agonist assay, Cerep (impedance)
T1 sequence (P43115 1-390): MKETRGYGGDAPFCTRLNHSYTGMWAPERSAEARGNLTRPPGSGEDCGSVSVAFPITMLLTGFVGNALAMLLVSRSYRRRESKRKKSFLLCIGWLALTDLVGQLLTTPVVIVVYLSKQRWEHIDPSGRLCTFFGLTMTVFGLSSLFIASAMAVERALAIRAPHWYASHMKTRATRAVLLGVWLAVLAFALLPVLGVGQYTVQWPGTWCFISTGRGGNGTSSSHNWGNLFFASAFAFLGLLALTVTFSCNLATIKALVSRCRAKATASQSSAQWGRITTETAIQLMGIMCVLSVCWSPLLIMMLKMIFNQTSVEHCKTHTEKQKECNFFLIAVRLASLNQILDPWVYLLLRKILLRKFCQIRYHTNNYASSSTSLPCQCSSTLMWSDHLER

[4] = molecular target: ERK2 (Homo sapiens, UniProt P28482); experiment: ExpresS Diversity Kinase Profile, Cerep (LANCE): ERK2; format: biochemical
Chain of ERK2 (P28482 whole entry): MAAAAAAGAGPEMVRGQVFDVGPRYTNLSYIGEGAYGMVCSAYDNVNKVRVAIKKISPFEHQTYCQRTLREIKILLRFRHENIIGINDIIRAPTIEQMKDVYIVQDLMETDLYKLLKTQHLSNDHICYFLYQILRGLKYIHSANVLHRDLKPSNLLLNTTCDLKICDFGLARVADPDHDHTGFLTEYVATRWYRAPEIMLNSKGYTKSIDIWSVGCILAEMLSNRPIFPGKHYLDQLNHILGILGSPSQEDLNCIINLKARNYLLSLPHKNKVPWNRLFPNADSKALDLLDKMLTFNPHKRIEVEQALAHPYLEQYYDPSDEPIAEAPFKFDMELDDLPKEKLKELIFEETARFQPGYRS

[5] = test system: Staphylococcus aureus ATCC 25923; experiment: Minimum inhibitory concentration assay, Staphylococcus aureus; settings: concentrations up to 50 µM
[6] = molecular target: T2, 5-LO (Homo sapiens, UniProt P09917); format: biochemical
T2 sequence (P09917 1-674): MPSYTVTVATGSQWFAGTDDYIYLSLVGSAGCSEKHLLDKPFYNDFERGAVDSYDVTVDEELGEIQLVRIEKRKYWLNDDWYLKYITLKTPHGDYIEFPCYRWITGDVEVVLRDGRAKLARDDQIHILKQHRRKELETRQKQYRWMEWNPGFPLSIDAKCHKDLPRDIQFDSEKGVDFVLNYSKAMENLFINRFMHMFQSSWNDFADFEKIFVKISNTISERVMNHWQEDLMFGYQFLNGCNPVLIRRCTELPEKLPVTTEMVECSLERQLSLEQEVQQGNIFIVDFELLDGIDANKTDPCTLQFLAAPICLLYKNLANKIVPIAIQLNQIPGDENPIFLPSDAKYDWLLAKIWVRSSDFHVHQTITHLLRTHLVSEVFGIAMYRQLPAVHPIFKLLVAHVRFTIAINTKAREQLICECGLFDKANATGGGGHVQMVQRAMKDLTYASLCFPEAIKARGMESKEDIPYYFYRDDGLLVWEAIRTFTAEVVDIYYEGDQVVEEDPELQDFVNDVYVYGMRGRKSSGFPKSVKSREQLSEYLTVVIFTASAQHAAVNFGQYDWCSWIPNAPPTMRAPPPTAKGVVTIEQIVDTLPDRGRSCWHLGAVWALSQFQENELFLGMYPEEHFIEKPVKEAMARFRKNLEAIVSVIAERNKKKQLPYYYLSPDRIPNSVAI

[7] = molecular target: EP4 (Homo sapiens, UniProt P35408); experiment: EP4 functional agonist assay, Cerep (cAMP, HTRF)
Chain of EP4 (P35408 whole entry): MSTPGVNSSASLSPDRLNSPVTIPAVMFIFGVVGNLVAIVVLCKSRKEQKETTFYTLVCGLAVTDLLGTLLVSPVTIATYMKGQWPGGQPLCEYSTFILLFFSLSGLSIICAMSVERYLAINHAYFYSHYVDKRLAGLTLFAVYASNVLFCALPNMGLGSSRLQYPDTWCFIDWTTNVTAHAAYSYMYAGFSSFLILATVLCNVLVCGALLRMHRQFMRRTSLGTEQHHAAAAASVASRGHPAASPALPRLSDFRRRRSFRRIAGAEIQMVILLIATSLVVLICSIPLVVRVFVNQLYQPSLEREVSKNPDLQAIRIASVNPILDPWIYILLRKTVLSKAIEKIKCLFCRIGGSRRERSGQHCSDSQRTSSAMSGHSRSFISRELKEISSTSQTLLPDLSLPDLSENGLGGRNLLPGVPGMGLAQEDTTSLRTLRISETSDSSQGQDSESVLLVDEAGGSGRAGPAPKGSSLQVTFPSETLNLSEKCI

[8] = molecular target: T3, 15-LO-2 (Homo sapiens, UniProt O15296); experiment: 15-LO-2 inhibition assay, Cerep (Method A, fluorometry); format: biochemical; settings: 5 µM
T3 sequence (O15296 1-676): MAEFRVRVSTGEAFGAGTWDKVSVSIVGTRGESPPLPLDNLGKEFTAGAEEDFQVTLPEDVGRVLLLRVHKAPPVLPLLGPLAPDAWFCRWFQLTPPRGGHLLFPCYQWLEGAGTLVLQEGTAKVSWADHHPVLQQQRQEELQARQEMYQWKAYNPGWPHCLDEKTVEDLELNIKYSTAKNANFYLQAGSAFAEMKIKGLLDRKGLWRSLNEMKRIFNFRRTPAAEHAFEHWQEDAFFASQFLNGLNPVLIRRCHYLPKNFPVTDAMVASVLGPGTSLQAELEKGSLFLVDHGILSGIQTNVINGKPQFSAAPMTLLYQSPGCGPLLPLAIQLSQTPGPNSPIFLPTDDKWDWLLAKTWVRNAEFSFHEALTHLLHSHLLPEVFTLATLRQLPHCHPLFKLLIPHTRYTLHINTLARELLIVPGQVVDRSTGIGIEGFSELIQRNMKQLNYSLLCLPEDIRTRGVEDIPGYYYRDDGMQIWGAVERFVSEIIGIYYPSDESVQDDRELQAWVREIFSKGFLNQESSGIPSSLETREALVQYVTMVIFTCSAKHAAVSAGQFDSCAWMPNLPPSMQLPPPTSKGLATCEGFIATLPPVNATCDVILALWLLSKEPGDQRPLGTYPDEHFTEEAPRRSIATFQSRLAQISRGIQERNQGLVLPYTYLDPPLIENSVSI

[9] = molecular target: PAK4 (Homo sapiens, UniProt O96013); experiment: ExpresS Diversity Kinase Profile, Cerep (LANCE): PAK4; format: biochemical
Chain of PAK4 (O96013 whole entry): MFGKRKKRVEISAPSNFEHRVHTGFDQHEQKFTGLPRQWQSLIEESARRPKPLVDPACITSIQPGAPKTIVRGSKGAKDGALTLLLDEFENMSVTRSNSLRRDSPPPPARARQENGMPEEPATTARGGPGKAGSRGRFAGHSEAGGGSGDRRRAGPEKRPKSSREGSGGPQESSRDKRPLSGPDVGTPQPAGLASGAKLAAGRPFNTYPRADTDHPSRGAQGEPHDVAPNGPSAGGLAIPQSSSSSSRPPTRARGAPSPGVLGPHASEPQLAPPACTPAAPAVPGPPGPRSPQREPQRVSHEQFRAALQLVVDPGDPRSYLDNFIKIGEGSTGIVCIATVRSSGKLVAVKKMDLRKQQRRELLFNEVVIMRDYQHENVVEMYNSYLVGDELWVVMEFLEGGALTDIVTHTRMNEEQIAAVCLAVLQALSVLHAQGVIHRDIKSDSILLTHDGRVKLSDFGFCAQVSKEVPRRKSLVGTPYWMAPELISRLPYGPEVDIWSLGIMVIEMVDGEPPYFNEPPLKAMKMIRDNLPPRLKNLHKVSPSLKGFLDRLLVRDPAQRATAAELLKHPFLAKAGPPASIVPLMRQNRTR

[10] = molecular target: T2, 5-LO; experiment: 5-LO product formation in intact human neutrophils stimulated with A23187 plus arachidonic acid
[11] = molecular target: EGFR (Homo sapiens, UniProt P00533); experiment: ExpresS Diversity Kinase Profile, Cerep (LANCE): EGFR; format: biochemical
Chain of EGFR (P00533 25-1210): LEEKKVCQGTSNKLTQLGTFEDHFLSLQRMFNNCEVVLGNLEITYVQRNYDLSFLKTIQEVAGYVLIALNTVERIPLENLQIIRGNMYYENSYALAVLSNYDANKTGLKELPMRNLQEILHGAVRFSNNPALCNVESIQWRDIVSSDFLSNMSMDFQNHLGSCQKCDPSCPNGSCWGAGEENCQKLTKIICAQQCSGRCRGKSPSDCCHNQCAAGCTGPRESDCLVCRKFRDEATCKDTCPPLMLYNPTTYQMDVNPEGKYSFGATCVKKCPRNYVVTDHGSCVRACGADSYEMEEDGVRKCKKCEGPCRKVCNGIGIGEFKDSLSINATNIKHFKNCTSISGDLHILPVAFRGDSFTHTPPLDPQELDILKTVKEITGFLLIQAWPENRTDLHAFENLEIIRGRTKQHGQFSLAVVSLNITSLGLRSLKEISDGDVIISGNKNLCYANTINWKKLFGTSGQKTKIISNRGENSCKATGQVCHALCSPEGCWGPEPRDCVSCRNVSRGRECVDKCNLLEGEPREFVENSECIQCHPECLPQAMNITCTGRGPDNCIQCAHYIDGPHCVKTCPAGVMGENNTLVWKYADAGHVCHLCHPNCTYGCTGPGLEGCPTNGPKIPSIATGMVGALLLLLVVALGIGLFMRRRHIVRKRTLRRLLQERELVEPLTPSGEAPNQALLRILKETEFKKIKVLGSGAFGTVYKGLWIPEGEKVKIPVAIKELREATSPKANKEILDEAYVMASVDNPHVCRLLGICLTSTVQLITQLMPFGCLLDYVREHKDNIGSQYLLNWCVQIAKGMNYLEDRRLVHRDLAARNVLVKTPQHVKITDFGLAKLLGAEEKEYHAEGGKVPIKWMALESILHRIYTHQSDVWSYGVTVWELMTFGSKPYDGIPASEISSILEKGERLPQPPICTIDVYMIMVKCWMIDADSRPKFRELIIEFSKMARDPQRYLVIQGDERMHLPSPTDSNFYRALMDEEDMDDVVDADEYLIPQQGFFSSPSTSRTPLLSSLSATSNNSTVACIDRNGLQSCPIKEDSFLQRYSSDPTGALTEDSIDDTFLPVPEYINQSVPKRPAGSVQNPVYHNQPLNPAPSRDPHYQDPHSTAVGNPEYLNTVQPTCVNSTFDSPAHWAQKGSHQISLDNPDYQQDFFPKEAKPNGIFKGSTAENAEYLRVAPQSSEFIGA

[12] = read-out: % of control values, 1st measurement
[13] = read-out: % of control values, 2nd measurement
[14] = read-out: % of control values, Mean
[15] = n = 2, read-out: % Inhibition of control values, Mean
[16] = read-out: % Inhibition of control values, 1st measurement
[17] = read-out: % Inhibition of control values, 2nd measurement

Chain of ROCK1 (Q13464 whole entry): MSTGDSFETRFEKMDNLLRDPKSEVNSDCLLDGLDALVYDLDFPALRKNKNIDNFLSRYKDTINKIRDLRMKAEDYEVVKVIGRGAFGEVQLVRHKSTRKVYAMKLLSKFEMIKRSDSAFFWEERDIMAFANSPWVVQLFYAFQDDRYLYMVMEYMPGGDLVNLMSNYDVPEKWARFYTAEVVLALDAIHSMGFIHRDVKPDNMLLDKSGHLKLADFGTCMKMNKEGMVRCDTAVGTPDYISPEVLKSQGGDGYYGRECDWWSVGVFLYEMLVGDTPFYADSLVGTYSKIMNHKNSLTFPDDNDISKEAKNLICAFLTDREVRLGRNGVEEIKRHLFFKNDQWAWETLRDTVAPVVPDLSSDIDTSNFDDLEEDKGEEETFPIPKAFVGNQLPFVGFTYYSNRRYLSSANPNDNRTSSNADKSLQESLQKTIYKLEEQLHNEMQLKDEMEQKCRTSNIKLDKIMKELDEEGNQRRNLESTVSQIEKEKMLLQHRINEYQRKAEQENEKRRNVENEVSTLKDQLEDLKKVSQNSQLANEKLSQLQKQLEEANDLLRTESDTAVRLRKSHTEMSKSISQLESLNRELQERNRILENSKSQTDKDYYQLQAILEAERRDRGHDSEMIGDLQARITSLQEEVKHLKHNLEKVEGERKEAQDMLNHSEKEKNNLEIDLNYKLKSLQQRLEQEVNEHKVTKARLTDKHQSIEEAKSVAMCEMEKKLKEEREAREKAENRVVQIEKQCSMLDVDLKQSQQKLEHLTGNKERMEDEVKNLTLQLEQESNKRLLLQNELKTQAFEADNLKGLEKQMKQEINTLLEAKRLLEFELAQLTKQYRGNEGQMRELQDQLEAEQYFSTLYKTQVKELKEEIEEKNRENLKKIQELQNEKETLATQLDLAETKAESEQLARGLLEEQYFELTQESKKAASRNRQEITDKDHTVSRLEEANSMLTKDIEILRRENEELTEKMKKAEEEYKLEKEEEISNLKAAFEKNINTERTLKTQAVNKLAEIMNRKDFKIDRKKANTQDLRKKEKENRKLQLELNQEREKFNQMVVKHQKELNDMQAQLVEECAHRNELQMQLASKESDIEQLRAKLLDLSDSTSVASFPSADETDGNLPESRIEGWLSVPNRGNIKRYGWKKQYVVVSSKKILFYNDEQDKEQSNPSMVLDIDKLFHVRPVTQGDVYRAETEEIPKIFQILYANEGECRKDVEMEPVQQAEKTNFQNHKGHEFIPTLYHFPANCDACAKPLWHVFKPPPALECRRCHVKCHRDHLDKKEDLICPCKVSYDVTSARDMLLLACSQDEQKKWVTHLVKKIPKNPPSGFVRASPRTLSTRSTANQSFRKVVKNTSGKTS

Work on CC1(C)CCC2=C(O1)c1ccccc1C(=O)C2=O [β-Lapachone] yielded an IC50 ([1]; read-out: IC50 (control)) of 390 nM, an IC50 ([1]; read-out: IC50 (differentiated)) of 180 nM and an inhibition at 150 µM ([2]; Flag: Interference, read-out: % Inhibition of control values, 1st measurement) of -12.5%. For the same compound, the inhibition at 150 µM ([2]; Flag: Interference, read-out: % Inhibition of control values, 2nd measurement) was -3.2%, the inhibition at 150 µM ([2]; n = 2, Flag: Interference, read-out: % Inhibition of control values, Mean) was -7.9% and the remaining activity at 150 µM [3, 12] was 18.6%. It also gave a remaining activity at 150 µM [3, 13] of 15.5%, a remaining activity at 150 µM [3, 14] of 17% and an inhibition at 150 µM [4, 15] of 45.9%. For the same compound, the inhibition at 150 µM [4, 16] was 44.8%, the inhibition at 150 µM [4, 17] was 46.9% and the “phenotypic effects on Staphylococcus aureus” value [5] was “No phenotypic effects”. For the same compound, the “inhibition of 5-LO at varying arachidonic acid concentrations” value ([6]; AA 2.5–40 μM, n = 3) was “non-competitive inhibition”, the IC50 ([6]; IC50 (3 μg mL^–1, PC), competition with phosphatidylcholine 3 μg/mL, n = 3) was 100 nM and the IC50 ([6]; IC50 (30 μg mL^–1, PC), competition with phosphatidylcholine 30 μg/mL, n = 3) was 1000 nM. The IC50 ([6]; IC50 (with DTT), cell-free, reducing conditions, 1 mM dithiothreitol (DTT), n = 3) was 240 nM, the IC50 ([6]; IC50 (without Triton X100), cell-free, plus 1 mM DTT, no Triton X100, n = 3) was 120 nM and the IC50 ([6]; cell-free, absence of DTT, n = 3, read-out: IC50 (without DTT)) was > 30000 nM. For the same compound, the IC50 ([6]; cell-free, plus 1 mM DTT, 0.01% Triton X100, n = 3, read-out: IC50 (with Triton X100)) was 90 nM, the “5-LO activity upon wash-out” value ([6]; wash-out experiment, 10-fold dilution, plus 1 mM DTT) was “reinstated” and the IC50 [7] was ~100000 nM. The remaining activity at 150 µM [7, 12] was 54.6%, the remaining activity at 150 µM [7, 13] was 51.7% and the remaining activity at 150 µM [7, 14] was 53.1%. It also gave an inhibition at 5 µM ([8]; n = 2, read-out: % inhibition of control values, Mean) of -12.9%, an inhibition at 5 µM ([8]; read-out: % inhibition of control values, 1st measure) of -12% and an inhibition at 5 µM ([8]; read-out: % inhibition of control values, 2nd measure) of -13.8%. For the same compound, the inhibition at 150 µM [9, 15] was -1.9%, the inhibition at 150 µM [9, 16] was -3.7% and the inhibition at 150 µM [9, 17] was 0%. For the same compound, the IC50 ([10]; IC50 (5-LO), intact human neutrophils, without DTT, n = 3) was 8600 nM, the IC50 ([10]; IC50, intact human neutrophils supplemented with 1 mM DTT, n = 4) was 420 nM and the inhibition at 150 µM [11, 15] was 67.1%. It also gave an inhibition at 150 µM [11, 16] of 68.5% and an inhibition at 150 µM [11, 17] of 65.7%.

From PMC6138237, “Machine intelligence decrypts β-lapachone as an allosteric 5-lipoxygenase inhibitor” (Chemical Science, 2018)
